These are literature values, as cited in patent US20190231802A1, “CHEMOTHERAPEUTIC-RELEASING IMPLANTABLE STICK, METHODS OF MANUFACTURE AND PRECURSOR MATERIALS” (The Johns Hopkins University, priority 2016, published 2019).

The test system of this data set is selected cancer cell lines. As to conditions: compared to paclitaxel, topotecan, CPT-11, docetaxel, carboplatin and temozolomide; previous study [8].

Consider `COc1cccc2c1C(=O)c1c(O)c3c(c(O)c1C2=O)C[C@@](O)(C(=O)CO)C[C@@H]3O[C@H]1C[C@H](N)[C@H](O)[C@H](C)O1` [Doxorubicin], for which the IC50 result is reported as “relatively low IC50”.
